Experiment: Stability of cannabinoid and Vitamin E components of Beverage 1 (AB White) stored at 8° C. and 21-25° C., LCMSMS over 570 days
Assay type: physicochemical
Conditions: for Stability in AB White, 8° C. (content by LCMSMS): beverage stored at 8° C.; for Stability in AB White, 21-25° C. (content by LCMSMS): beverage stored at 21-25° C.
Method: The LCMSMS was calibrated for 0-1000 ng/ml cannabinoids with the same resin material used in the preparation of the concentrates. At each time period, 100 ml of beverage was diluted with 10 ml of methanol and injected into the LCMSMS for analysis.

## CCCc1cc(O)c2c(c1)OC(C)(C)[C@@H]1CCC(C)=C[C@@H]21 [THCV, delta-9-tetrahydrocannabivarin]
Day 0
  Stability in AB White, 8° C. (content by LCMSMS): 3.6 µg/mL
  Stability in AB White, 21-25° C. (content by LCMSMS): 3.6 µg/mL
Day 1
  Stability in AB White, 8° C. (content by LCMSMS): 3.54 µg/mL
  Stability in AB White, 21-25° C. (content by LCMSMS): 3.48 µg/mL
Day 2
  Stability in AB White, 8° C. (content by LCMSMS): 3.60 µg/mL
  Stability in AB White, 21-25° C. (content by LCMSMS): 3.58 µg/mL
Day 3
  Stability in AB White, 8° C. (content by LCMSMS): 3.55 µg/mL
  Stability in AB White, 21-25° C. (content by LCMSMS): 3.54 µg/mL
Day 5
  Stability in AB White, 8° C. (content by LCMSMS): 3.58 µg/mL
  Stability in AB White, 21-25° C. (content by LCMSMS): 3.55 µg/mL
Day 8
  Stability in AB White, 8° C. (content by LCMSMS): 3.60 µg/mL
  Stability in AB White, 21-25° C. (content by LCMSMS): 3.63 µg/mL
Day 9
  Stability in AB White, 8° C. (content by LCMSMS): 3.61 µg/mL
  Stability in AB White, 21-25° C. (content by LCMSMS): 3.55 µg/mL
Day 10
  Stability in AB White, 8° C. (content by LCMSMS): 3.58 µg/mL
  Stability in AB White, 21-25° C. (content by LCMSMS): 3.55 µg/mL
Day 11
  Stability in AB White, 8° C. (content by LCMSMS): 3.59 µg/mL
  Stability in AB White, 21-25° C. (content by LCMSMS): 3.59 µg/mL
Day 12
  Stability in AB White, 8° C. (content by LCMSMS): 3.50 µg/mL
  Stability in AB White, 21-25° C. (content by LCMSMS): 3.47 µg/mL
Day 15
  Stability in AB White, 8° C. (content by LCMSMS): 3.56 µg/mL
  Stability in AB White, 21-25° C. (content by LCMSMS): 3.48 µg/mL
Day 16
  Stability in AB White, 8° C. (content by LCMSMS): 3.57 µg/mL
  Stability in AB White, 21-25° C. (content by LCMSMS): 3.60 µg/mL
Day 17
  Stability in AB White, 8° C. (content by LCMSMS): 3.61 µg/mL
  Stability in AB White, 21-25° C. (content by LCMSMS): 3.51 µg/mL
Day 18
  Stability in AB White, 8° C. (content by LCMSMS): 3.59 µg/mL
  Stability in AB White, 21-25° C. (content by LCMSMS): 3.50 µg/mL
Day 19
  Stability in AB White, 8° C. (content by LCMSMS): 3.51 µg/mL
  Stability in AB White, 21-25° C. (content by LCMSMS): 3.59 µg/mL
Day 22
  Stability in AB White, 8° C. (content by LCMSMS): 3.60 µg/mL
  Stability in AB White, 21-25° C. (content by LCMSMS): 3.52 µg/mL
Day 23
  Stability in AB White, 8° C. (content by LCMSMS): 3.55 µg/mL
  Stability in AB White, 21-25° C. (content by LCMSMS): 3.57 µg/mL
Day 24
  Stability in AB White, 8° C. (content by LCMSMS): 3.56 µg/mL
  Stability in AB White, 21-25° C. (content by LCMSMS): 3.63 µg/mL
Day 25
  Stability in AB White, 8° C. (content by LCMSMS): 3.56 µg/mL
  Stability in AB White, 21-25° C. (content by LCMSMS): 3.54 µg/mL
Day 26
  Stability in AB White, 8° C. (content by LCMSMS): 3.63 µg/mL
  Stability in AB White, 21-25° C. (content by LCMSMS): 3.55 µg/mL
Day 29
  Stability in AB White, 8° C. (content by LCMSMS): 3.52 µg/mL
  Stability in AB White, 21-25° C. (content by LCMSMS): 3.62 µg/mL
Day 30
  Stability in AB White, 8° C. (content by LCMSMS): 3.59 µg/mL
  Stability in AB White, 21-25° C. (content by LCMSMS): 3.48 µg/mL
Day 60
  Stability in AB White, 8° C. (content by LCMSMS): 3.58 µg/mL
  Stability in AB White, 21-25° C. (content by LCMSMS): 3.50 µg/mL
Day 90
  Stability in AB White, 8° C. (content by LCMSMS): 3.56 µg/mL
  Stability in AB White, 21-25° C. (content by LCMSMS): 3.47 µg/mL
Day 120
  Stability in AB White, 8° C. (content by LCMSMS): 3.56 µg/mL
  Stability in AB White, 21-25° C. (content by LCMSMS): 3.45 µg/mL
Day 150
  Stability in AB White, 8° C. (content by LCMSMS): 3.55 µg/mL
  Stability in AB White, 21-25° C. (content by LCMSMS): 3.54 µg/mL
Day 180
  Stability in AB White, 8° C. (content by LCMSMS): 3.59 µg/mL
  Stability in AB White, 21-25° C. (content by LCMSMS): 3.52 µg/mL
Day 210
  Stability in AB White, 8° C. (content by LCMSMS): 3.44 µg/mL
  Stability in AB White, 21-25° C. (content by LCMSMS): 3.40 µg/mL
Day 240
  Stability in AB White, 8° C. (content by LCMSMS): 3.56 µg/mL
  Stability in AB White, 21-25° C. (content by LCMSMS): 3.41 µg/mL
Day 270
  Stability in AB White, 8° C. (content by LCMSMS): 3.47 µg/mL
  Stability in AB White, 21-25° C. (content by LCMSMS): 3.56 µg/mL
Day 300
  Stability in AB White, 8° C. (content by LCMSMS): 3.46 µg/mL
  Stability in AB White, 21-25° C. (content by LCMSMS): 3.52 µg/mL
Day 330
  Stability in AB White, 8° C. (content by LCMSMS): 3.52 µg/mL
  Stability in AB White, 21-25° C. (content by LCMSMS): 3.55 µg/mL
Day 360
  Stability in AB White, 8° C. (content by LCMSMS): 3.50 µg/mL
  Stability in AB White, 21-25° C. (content by LCMSMS): 3.49 µg/mL
Day 390
  Stability in AB White, 8° C. (content by LCMSMS): 3.47 µg/mL
  Stability in AB White, 21-25° C. (content by LCMSMS): 3.40 µg/mL
Day 420
  Stability in AB White, 8° C. (content by LCMSMS): 3.49 µg/mL
  Stability in AB White, 21-25° C. (content by LCMSMS): 3.46 µg/mL
Day 450
  Stability in AB White, 8° C. (content by LCMSMS): 3.44 µg/mL
  Stability in AB White, 21-25° C. (content by LCMSMS): 3.47 µg/mL
Day 480
  Stability in AB White, 8° C. (content by LCMSMS): 3.44 µg/mL
  Stability in AB White, 21-25° C. (content by LCMSMS): 3.30 µg/mL
Day 510
  Stability in AB White, 8° C. (content by LCMSMS): 3.34 µg/mL
  Stability in AB White, 21-25° C. (content by LCMSMS): 3.32 µg/mL
Day 540
  Stability in AB White, 8° C. (content by LCMSMS): 3.32 µg/mL
  Stability in AB White, 21-25° C. (content by LCMSMS): 3.44 µg/mL
Day 570
  Stability in AB White, 8° C. (content by LCMSMS): 3.30 µg/mL
  Stability in AB White, 21-25° C. (content by LCMSMS): 3.30 µg/mL

From patent US20240415914A1, “Water Dispersible Cannabinoid Compositions” (priority 2021, published 2024)
